For series [1] the following is noted: cited from earlier work.
For series [2] the following is noted: in vivo; cited from earlier work.
A short description of series [3]: Intrasite vancomycin pharmacodynamics trial: systemic circulation serum vancomycin concentration. Type of series: in vivo, human. The settings on record: all measured time-points, single IS dose (2 mg/cm^2; moderate doses); detectability limit printed >1.7 μg/ml. How it is done: (§1) Intrasite Vancomycin Pharmacodynamics Trial.
Intrasite Dosing of Vancomycin.
Systemic Circulation Serum Vancomycin Concentrations after IS Dose. In all of the 10 patients of the 2 mg/cm^2 dose cohort serum vancomycin levels remained undetectable at all measured time-points after a single IS dose. Detectability limit in these experiments was >1.7 μg/ml. This is interpreted as a strong indicator of safety with regard to systemic side effects and toxicities as well as evidence of a very wide therapeutic index when vancomycin is administered IS. This strongly contrasts to the higher probability of systemic toxicity and narrow therapeutic index when vancomycin is administered IV.

A short description of series [4]: Intrasite vancomycin pharmacodynamics trial: adverse reactions. Type of series: in vivo, human. The settings on record: IS dose 2 mg/cm^2, spinal surgery patients.
Source text: as §1
Adverse Reactions to IS Vancomycin. […] There was one example of a post-operative gram-negative bacterial surgical site infection which could not have been prevented by vancomycin because its spectrum of antimicrobial effects dies not cover this organism.

In series [5] the test system is Vancomycin-Resistant Staphylococcus aureus (VRSA). The settings on record: certain strains of VRSA; cited from earlier work.
Series [6] in a line: Intrasite vancomycin pharmacodynamics trial: wound seroma vancomycin levels via wound drain. As for the experimental part:
Intrasite Vancomycin Pharmacodynamics Trial. A single dose cohort pharmacodynamics trial was performed under FDA IND# 117494, the first FDA IND awarded for intrasite vancomycin. This dose cohort involved administration of a low dose of intrasite lyophilized vancomycin into complex instrumented spinal surgery wounds in adult patients. At multiple specific time points after surgery measurements were taken of vancomycin and […] levels in the blood stream and from the wound seroma fluid (via the wound drain). Measurements of endotoxin levels within the blood stream and seroma fluid were also taken at the same time points following surgery. All personnel present during administration of IS vancomycin were required to wear a certified fit N-90 mask to prevent inhalation of aerosolized vancomycin powder, which is a known safety risk for pulmonary fibrosis.
Intrasite Dosing of Vancomycin. Intrasite dosing was based on the surface area of the wound (tissues within the spinal wound lying deep to the skin). Wound surface area was estimated by a wound Length×Depth×2 calculation where length and mean depth were measured directed by the surgeon after surgical opening of the wound was completed. To assure safety, the maximum IS dose of vancomycin given to patients in this cohort was limited to well below the normal maximum safe IV dose of 2.5 g. Given that maximum wound surface areas created in spinal deformity patients are on the order of 1000 cm^2, a surface area dose of 2 mg/cm^2 provides for a maximum single dose of ˜2 g IS vancomycin, considered safe even if the entire dose absorbed into the circulation. To improve the homogeneity of IS dose application one third of the total calculated dose was delivered to the subepidermal tissues of the wound, superficial to the perimuscular fascia, one third of the total dose was applied to the subfascial muscle, bone, and other tissues, and one third of the total dose was milled with the bone graft before implantation.
Wound Vancomycin Levels Following a Single Intrasite Dose. Wound seroma vancomycin levels were measured via the wound drain at multiple time points for 4 days after a single intrasite dose given at the conclusion of surgery. […] However, vancomycin is a time-dependent killer of microbes and levels must exceed kill concentrations for up to 48 hrs to be completely effective.

[7] abbreviates: measured at 2 hrs after single IS dose 2 mg/cm^2, 10 patients.
[8] abbreviates: single IS dose 2 mg/cm^2, 10 patients.
Setting [9] is: within the first 48 hrs after single IS dose 2 mg/cm^2, 10 patients.

Like-named read-outs stand apart in the source and are kept apart here. Where only a bound is given, the exact number is not on record here.

For the molecule `CO[C@H]1/C=C/O[C@@]2(C)Oc3c(C)c(O)c4c(O)c(c5c(nc6cc(C)ccn65)c4c3C2=O)NC(=O)/C(C)=C\C=C\[C@H](C)[C@H](O)[C@@H](C)[C@@H](O)[C@@H](C)[C@H](OC(C)=O)[C@@H]1C` [Rifaximin], the oral bioavailability in series [1] (in vivo, po) was under 0.4%.

As to `NC[C@H]1CC[C@H](C(=O)O)CC1` [TXA, trans-4-[aminomethyl]cyclohexanecarboxylic acid], the oral bioavailability in series [1] (oral) is 34%. The “half-life in the blood stream” value in series [2] was “approximately 2 hrs”.

In the case of `CN[C@H](CC(C)C)C(=O)N[C@H]1C(=O)N[C@@H](CC(N)=O)C(=O)N[C@H]2C(=O)N[C@H]3C(=O)N[C@H](C(=O)N[C@H](C(=O)O)c4cc(O)cc(O)c4-c4cc3ccc4O)[C@H](O)c3ccc(c(Cl)c3)Oc3cc2cc(c3O[C@@H]2O[C@H](CO)[C@@H](O)[C@H](O)[C@H]2O[C@H]2C[C@](C)(N)[C@H](O)[C@H](C)O2)Oc2ccc(cc2Cl)[C@H]1O` [vancomycin], in series [3], the “serum vancomycin level after IS dose” value was “undetectable”. Besides, the “adverse reactions related to IS vancomycin” value in series [4] is listed as “no patient- or practitioner-identified adverse reactions”. Moreover, the “minimum 90% bactericidal concentration (MBC^90)” value in series [5] was 64 µg/mL. In series [6] (setting [7]), the “highest vancomycin concentration, subfascial wound compartment” value stood at 952 µg/mL and the “highest vancomycin concentration, suprafascial wound compartment” value came to 6110 µg/mL. The “time vancomycin remains in high enough wound concentration for efficient suppression of gram-positive microorganisms” value in series [6] (moderate IS doses, also with seroma fluid removed via drains, preliminary evidence) is reported as “at least 4 days”. Further, in series [6] (setting [8]), the “time mean subfascial vancomycin concentration exceeds threshold to kill VRSA (128 μg/ml)” value is on record as “less than 24 hrs” and the “time mean suprafascial vancomycin concentration exceeds threshold to kill VRSA (128 μg/ml)” value was “more than 48 hrs”. In series [6] (setting [9]), the “lowest vancomycin concentration, subfascial wound compartment” value was 4.1 µg/mL and the “lowest vancomycin concentration, suprafascial wound compartment” value came out at 16.2 µg/mL.

These data come from patent US20180221296A1, “INTRASITE ADMINISTRATION AND DOSING METHODS AND PHARMACEUTICALS FOR USE THEREIN” (HKL Medical, LLC, priority 2017, published 2018).
